ChEMBL document CHEMBL4665913, “Discovery of CA-4948, an Orally Bioavailable IRAK4 Inhibitor for Treatment of Hematologic Malignancies” (ACS Med Chem Lett, 2020)

Columns and labels:
[1] = AUC (0 to t) in CD-1 mouse at 3 mg/kg, iv measured up to 24 hrs by LC-MS/MS analysis; format: ADME, organism-based; design: route intravenous, dose 3 mg/kg, time <=24; details: in vivo
[2] = Cmax in CD1 mouse at 10 mg/kg, po measured up to 24 hrs by LC-MS/MS analysis; format: ADME, organism-based; design: route oral, dose 10 mg/kg, time <=24; details: in vivo
[3] = Metabolic stability in mouse liver microsomes assessed as parent compound remaining at 1 uM measured upto 60 mins in presence of NADPH by LC-MS/MS analysis; format: ADME, Microsome; details: read-out: Stabilty
in vitro = details: human, Caco-2
[4] = Volume of distribution in CD1 mouse at 3 mg/kg, iv measured up to 24 hrs by LC-MS/MS analysis; format: ADME, organism-based; details: in vivo
[5] = Clearance in CD1 mouse at 3 mg/kg, iv measured up to 24 hrs by LC-MS/MS analysis; format: ADME, organism-based; details: in vivo
[6] = Initial plasma concentration in CD1 mouse at 3 mg/kg, iv by LC-MS/MS analysis; format: ADME, organism-based
[7] = Half life in CD1 mouse at 3 mg/kg, iv measured up to 24 hrs by LC-MS/MS analysis; format: ADME, organism-based; details: in vivo
[8] = Metabolic stability in rat liver microsomes assessed as parent compound remaining at 1 uM measured upto 60 mins in presence of NADPH by LC-MS/MS analysis; format: ADME, Microsome; details: read-out: Stabilty
[9] = Tmax in CD1 mouse at 10 mg/kg, po measured up to 24 hrs by LC-MS/MS analysis; format: ADME, organism-based; details: in vivo
[10] = Oral bioavailability in CD1 mouse at 10 mg/kg measured up to 24 hrs by LC-MS/MS analysis; format: ADME, organism-based; details: in vivo
[11] = Metabolic stability in human liver microsomes assessed as parent compound remaining at 1 uM measured upto 60 mins in presence of NADPH by LC-MS/MS analysis; format: ADME, Microsome; details: read-out: Stabilty
[12] = AUC (0 to t) in CD-1 mouse at 10 mg/kg, po measured up to 24 hrs by LC-MS/MS analysis; format: ADME, organism-based; design: route oral, dose 10 mg/kg, time <=24; details: in vivo

SMILES	AUC(0-t) at 24 h [1]	Cmax [2]	remaining at 1 h, 1 µM [3]	Papp A→B at 2 h, 10 µM (in vitro)	Vd [4]	clearance [5]	C0 [6]	half-life [7]	remaining at 1 h, 1 µM [8]	Tmax [9]	bioavailability [10]	remaining at 1 h, 1 µM [11]	AUC(0-t) at 24 h [12]
Cc1cc(-c2nc(C(=O)Nc3cc4oc(N5CCOCC5)nc4nc3N3CC[C@H](O)C3)co2)ccn1	928 ng·h/mL	2530 ng/mL	> 95%	21.9 ×10⁻⁶ cm/s	5.57 L/kg	52.2 mL/min/kg	788 ng/mL	48 min	> 95%	18 min	100%	> 95%	4490 ng·h/mL
Cc1cc(-c2nc(C(=O)Nc3cc4oc(N5CCOCC5)nc4nc3C3CC3)co2)ccn1	–	–	13%	49.4 ×10⁻⁶ cm/s	–	–	–	–	> 95%	–	–	87%	–
Cc1cc(-c2nc(C(=O)Nc3cc4oc(N5CCOCC5)nc4nc3N3CCC(O)CC3)co2)ccn1	–	–	> 95%	13.5 ×10⁻⁶ cm/s	–	–	–	–	> 95%	–	–	> 95%	–
Cc1cc(-c2nc(C(=O)Nc3cc4oc(N5CCOCC5)nc4nc3N3CC[C@@H](N)C3)co2)ccn1	–	–	82%	1 ×10⁻⁶ cm/s	–	–	–	–	> 95%	–	–	> 95%	–
Cc1cc(-c2nc(C(=O)Nc3cc4oc(N5CCOCC5)nc4nc3N3CC[C@@H](F)C3)co2)ccn1	–	–	88%	54.2 ×10⁻⁶ cm/s	–	–	–	–	95%	–	–	95%	–
